Counter-ions that a name gives are not always drawn.
These molecules were tested against T1, human histamine H3 receptor (Homo sapiens, UniProt Q9Y5N1) (assay: {3H}-N-methylhistamine binding).
T1 construct: One microgram of supercoiled H3 receptor cDNA was added to the cells and mixed; expressed in transfected cells; membranes prepared from cell pellets
Description: Transfection of Cells with Human Histamine Receptor
A 10 cm tissue culture dish with a confluent monolayer of SK-N-MC cells was split two days prior to transfection. Using sterile technique the media was removed and the cells were detached from the dish by the addition of trypsin. One fifth of the cells were then placed onto a new 10 cm dish. Cells were grown in a 37° C. incubator with 5% CO2 in Minimal Essential Media Eagle with 10%. Fetal Bovine Serum. After two days cells were approximately 80% confluent. These were removed from the dish with trypsin and pelleted in a clinical centrifuge. The pellet was then re-suspended in 400 μL complete media and transferred to an electroporation cuvette with a 0.4 cm gap between the electrodes. One microgram of supercoiled H3 receptor cDNA was added to the cells and mixed. The voltage for the electroporation was set at 0.25 kV, the capacitance was set at 960 μF. After electroporation the cells were diluted into 10 mL complete media and plated onto four 10 cm dishes. Because of the variability in the efficiency of electroporation, four different concentrations of cells were plated. The ratios used were; 1:20, 1:10, 1:5, with the remainder of the cells being added to the fourth dish. […] After 10 days dishes were analyzed for surviving colonies of cells. Dishes with well-isolated colonies were used. Cells from individual colonies were isolated and tested. SK-N-MC cells were used because they give efficient coupling for inhibition of adenylate cyclase. The clones that gave the most robust inhibition of adenylate cyclase in response to histamine were used for further study.
{^3H}-N-methylhistamine Binding
Cell pellets from histamine H3 receptor-expressing SK-N-MC cells were homogenized in 20 mM TrisHCl/0.5 mM EDTA. Supernatants from an 800 g spin were collected, recentrifuged at 30,000 g for 30 min. Pellets were re-homogenized in 50 mM Tris/5 mM EDTA (pH 7.4). […] Filters were dried, added to 4 mL scintillation cocktail and then counted on a liquid scintillation counter. Non-specific binding was defined with 10 μM histamine.

T1 sequence (Q9Y5N1 whole entry): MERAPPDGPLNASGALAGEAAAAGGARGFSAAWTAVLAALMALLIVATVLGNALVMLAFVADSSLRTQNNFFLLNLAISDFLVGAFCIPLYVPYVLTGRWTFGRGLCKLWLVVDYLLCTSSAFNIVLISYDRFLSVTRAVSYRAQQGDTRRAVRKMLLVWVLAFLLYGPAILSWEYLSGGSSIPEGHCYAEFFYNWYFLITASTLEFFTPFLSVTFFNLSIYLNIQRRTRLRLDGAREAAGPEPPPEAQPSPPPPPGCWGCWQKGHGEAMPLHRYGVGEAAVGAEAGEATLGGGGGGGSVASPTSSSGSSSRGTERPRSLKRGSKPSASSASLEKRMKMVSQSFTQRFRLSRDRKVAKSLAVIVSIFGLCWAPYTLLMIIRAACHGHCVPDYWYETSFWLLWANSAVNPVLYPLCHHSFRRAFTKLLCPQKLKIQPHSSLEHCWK

Ki [nM] | Compound
2 | CCCN(CCOC)Cc1ccc(C(=O)N2CCN(C(C)C)CC2)cc1 [Example 68, (4-Isopropyl-piperazin-1-yl)-(4-{[(2-methoxy-ethyl)-propyl-amino]-methyl}-phenyl)-methanone]
3 | CCN(CCOC)Cc1ccc(C(=O)N2CCN(C(C)C)CC2)cc1 [Example 69, (4-{[Ethyl-(2-methoxy-ethyl)-amino]-methyl}-phenyl)-(4-isopropyl-piperazin-1-yl)-methanone]
2 | COCCNCc1ccc(C(=O)N2CCN(C(C)C)CC2)cc1 [Example 70, (4-Isopropyl-piperazin-1-yl)-{4-[(2-methoxy-ethylamino)-methyl]-phenyl}-methanone]
4 | CC(C)N1CCN(C(=O)c2ccc(CNc3ccccn3)cc2)CC1 [Example 71, (4-Isopropyl-piperazin-1-yl)-[4-(pyridin-2-ylaminomethyl)-phenyl]-methanone]
3 | COCC(C)NCc1ccc(C(=O)N2CCN(C(C)C)CC2)cc1 (stereo not drawn) [Example 72, (4-Isopropyl-piperazin-1-yl)-{4-[(2-methoxy-1-methyl-ethylamino)-methyl]-phenyl}-methanone]

More lines, now with the values behind:

Compound | Ki [nM]
CC(C)N1CCN(C(=O)c2ccc(CNCc3ccccc3)cc2)CC1 [Example 58, {4-(Benzylamino-methyl)-phenyl}-(4-isopropyl-piperazin-1-yl)-methanone dihydrochloride] | 3
CC(C)N1CCN(C(=O)c2ccc(CNc3ccccc3)cc2)CC1 [Example 59, (4-Isopropyl-piperazin-1-yl)-(4-phenylaminomethyl-phenyl)-methanone dihydrochloride] | 23
CC(C)N1CCN(C(=O)c2ccc(CN3CCCCCC3)cc2)CC1 [Example 60, (4-Azepan-1-ylmethyl-phenyl)-(4-isopropyl-piperazin-1-yl)-methanone dihydrochloride] | 1
CC(C)N1CCN(C(=O)c2ccc(CN3CCCC3)cc2)CC1 [Example 61, (4-Isopropyl-piperazin-1-yl)-(4-pyrrolidin-1-ylmethyl-phenyl)-methanone dihydrochloride] | 1
CC(C)N1CCN(C(=O)c2ccc(CN(C)C)cc2)CC1 [Example 62, (4-Dimethylaminomethyl-phenyl)-(4-isopropyl-piperazin-1-yl)-methanone dihydrochloride] | 5
O=C(c1ccc(CN2CCCCC2)cc1)N1CCN(C2CCCCC2)CC1 [Example 66, (4-Cyclohexyl-piperazin-1-yl)-(4-piperidin-1-ylmethyl-phenyl)-methanone] | 1
CC(C)N1CCN(C(=O)c2ccc(CN3CCSCC3)cc2)CC1 [Example 67, (4-Isopropyl-piperazin-1-yl)-(4-thiomorpholin-4-ylmethyl-phenyl)-methanone] | 2

Reference: US7414047B2, “Piperazinyl and diazapanyl benzamides and benzthioamides” (Janssen Pharmaceutica N.V., priority 2002, dated 2008)
